Experimental findings from US20070166781A1, “Method for assessing the virulence of pathogens and uses thereof” (priority 2002, published 2007) are described below.

Common to all, as to type: cell-based
In test [1] the test system is P. aeruginosa PAO-BI (nfxC). Nature of the test: MIC in Mueller-Hinton broth by the microdilution method. The note with it: Pseudomonas aeruginosa. As for the experimental part:
(§1) Bacteria were grown overnight at 37° C. on Luria-Bertani (LB) agar. Single colonies were inoculated into 5 ml PB (2% (wt/vol) peptone, 0.3% (wt/vol) MgCl2.6H2O, 1% (wt/vol) K2SO4) (Essar et al., 1990, J. Bacteriol., 172(2), 884-900) in a 50 ml flask and grown at 37° C. for 8 hr prior to use. […] Under these conditions, similar OD600s were obtained for each strain and the induction of quorum sensing was maximal. Minimal Inhibitory Concentrations (MICs) were determined in Mueller-Hinton broth by the microdilution method (Thornsberry et al., 1983 NCCLS, 3, 48-56).

Test [2] has as its system P. aeruginosa PAO1. The description is as above. The note with it: Pseudomonas aeruginosa; strain PAO1. As for the experimental part: as §1
Another test relates to P. aeruginosa PDO100. Described as above. The note with it: Pseudomonas aeruginosa. As for the experimental part:
as §1

For test [3], the system named is P. aeruginosa PT149 (nfxC). The description is as above. The note with it: Pseudomonas aeruginosa. As for the experimental part: as §1
Test [4] deals with P. aeruginosa PT625 (nalB). The test is described as above. The note with it: Pseudomonas aeruginosa. As for the experimental part: as §1
The test system of test [5] is P. aeruginosa PT648 (nfxB). The description is as above. The conditions noted are these: Pseudomonas aeruginosa. How it is done:
as §1

The test system of test [6] is P. aeruginosa PAO1. Nature of the test: Growth of D. discoideum DH1-10 on a lawn of P. aeruginosa PAO1 grown with azithromycin. The note with it: lawn of PAO1, 2 μg/ml azithromycin. How it is done:
Quantitative measurements of D. discoideum growth on a lawn of pure P. aeruginosa were obtained by first plating 200 μl of P. aeruginosa culture on SM-agar. Droplets of 5 μl containing serial dilutions of D. discoideum cells (50.000 cells, 10.000 cells, 2.000, etc.) were then spotted on the bacterial lawn. The plates were incubated for 5 days at 25° C. and the highest dilution at which D. discoideum growth was visible was recorded.
However, in these experiments, Dictyostelium was grown in, the presence of both Klebsiella and Pseudomonas bacteria. […] To obtain more quantitative results, higher numbers of Dictyostelium cells were used to determine how many amoebae would be necessary to create a plaque in a lawn of P. aeruginosa. […] Consequently growth of Dictyostelium on the lasR mutant was scored as 1. On a lawn of the rhlR mutant PT462, amoebal growth could be observed in the first five dilutions of Dictyostelium (FIG. 2C; scored 5). […]
A lawn of P. aeruginosa PAO1 is grown in the presence of 2 μg/ml of azithromycin overnight. The bacterial lawn is then seeded with different dilutions of D. discoideum DH1-10 three days latter and the appearance of D. discoideum DH1-10 colonies is monitored. Growth of colonies of D. discoideum DH1-10 are recorded and scored between 1 and 2 (same scale as FIG. 2) as compared to a score of 0 in the absence of antibiotic.

[7] abbreviates: strain PAO-BI (nfxC), read-out: MIC.
Where [8] appears, read: strain PT149 (nfxC), read-out: MIC.
[9] abbreviates: strain PT648 (nfxB), read-out: MIC.

Converted amounts (≈) assume the structure as drawn. Where two headings read alike, the source gives them in different places.

On to `O=C(O)c1cn(C2CC2)c2cc(N3CCNCC3)c(F)cc2c1=O` [Ciprofloxacin], for which the MIC was 1 µg/mL (≈ 3.02 µM) in test [1] (setting [7]); 0.125 µg/mL (≈ 0.377 µM) against P. aeruginosa PAO1 [2]; 0.125 µg/mL (≈ 0.377 µM) in the test on P. aeruginosa PDO100 (strain PDO100, read-out: MIC); 1 µg/mL (≈ 3.02 µM) in test [3] (setting [8]); 0.5 µg/mL (≈ 1.51 µM) in test [4]; 1 µg/mL (≈ 3.02 µM) in test [5] (setting [9]).
Regarding `C[C@H]1[C@H](NC(=O)/C(=N\OC(C)(C)C(=O)O)c2csc(N)n2)C(=O)N1S(=O)(=O)O` [Aztreonam], the MIC in test [1] (setting [7]) amounted to 2 µg/mL (≈ 4.59 µM); in the test on P. aeruginosa PAO1 [2], 4 µg/mL (≈ 9.19 µM); in the test with P. aeruginosa PDO100 (strain PDO100, read-out: MIC), 2 µg/mL (≈ 4.59 µM); in test [3] (setting [8]), 1 µg/mL (≈ 2.3 µM); in test [4] it was 16 µg/mL (≈ 36.7 µM); in test [5] (setting [9]) it was 2 µg/mL (≈ 4.59 µM).
For `O=C(N[C@H](CO)[C@H](O)c1ccc([N+](=O)[O-])cc1)C(Cl)Cl` [Chloramphenicol], the MIC in test [1] was 1060 µg/mL (≈ 3290 µM); in the test with P. aeruginosa PAO1 [2] it was 32 µg/mL (≈ 99 µM); with P. aeruginosa PDO100 (PDO100) it was 32 µg/mL (≈ 99 µM); in test [3], 1060 µg/mL (≈ 3290 µM); in test [4] it was 64 µg/mL (≈ 198 µM); in test [5] it was 64 µg/mL (≈ 198 µM).
On to `C[C@@H](O)[C@H]1C(=O)N2C(C(=O)O)=C(SCCN=CN)C[C@H]12` [Imipenem], for which the minimal inhibitory concentration (MIC) in test [1] (setting [7]) came out at 4 µg/mL (≈ 13.4 µM); against P. aeruginosa PAO1 [2], 1 µg/mL (≈ 3.34 µM); with P. aeruginosa PDO100 (strain PDO100, read-out: MIC), 1 µg/mL (≈ 3.34 µM); in test [3] (setting [8]), 4 µg/mL (≈ 13.4 µM); in test [4] it was 1 µg/mL (≈ 3.34 µM); in test [5] (setting [9]), 1 µg/mL (≈ 3.34 µM).
Regarding `CO/N=C(\C(=O)N[C@@H]1C(=O)N2C(C(=O)[O-])=C(C[n+]3cccc4c3CCC4)CS[C@H]12)c1csc(N)n1` [Cefpirome], the MIC in test [1] (setting [7]) is 0.5 µg/mL (≈ 0.972 µM); against P. aeruginosa PAO1 [2] it was 2 µg/mL (≈ 3.89 µM); in the test on P. aeruginosa PDO100 (strain PDO100, read-out: MIC), 2 µg/mL (≈ 3.89 µM); in test [3] (setting [8]), 0.5 µg/mL (≈ 0.972 µM); in test [4], 4 µg/mL (≈ 7.77 µM); in test [5] (setting [9]) it was 8 µg/mL (≈ 15.5 µM).
On to `CC[C@H]1OC(=O)[C@H](C)[C@@H](O[C@H]2C[C@@](C)(OC)[C@@H](O)[C@H](C)O2)[C@H](C)[C@@H](O[C@@H]2O[C@H](C)C[C@H](N(C)C)[C@H]2O)[C@](C)(O)C[C@@H](C)CN(C)[C@H](C)[C@@H](O)[C@]1(C)O` [azithromycin, Azithromycin], for which the “Growth of colonies of D. discoideum DH1-10 in the presence versus absence of azithromycin” value in the test with P. aeruginosa PAO1 [6] is given as “significantly greater”.

A word on the MIC: it is the least concentration at which growth counts as inhibited.
